Measured values taken from patent US20230270871A1, “MARKERS FOR USE IN METHODS FOR TREATING CANCERS WITH ANTIBODY DRUG CONJUGATES (ADC)” (AGENSYS, INC., priority 2020, published 2023).
Where a SMILES comes first, the peptide text is derived from it. [ ]: non-standard residue; d: D form. The star is where a group is joined. Dolaproine = CO[C@@H]([C@@H]1CCCN1)[C@@H](C)C(=O)O; Dil = CC[C@H](C)[C@H](NC)[C@@H](CC(=O)O)OC; X1 = C[C@@H](N*)[C@@H](O)c1ccccc1; NMeV = CN[C@H](C(=O)O)C(C)C

Key:
phospho-JNK [1] = experiment: Phospho-JNK western blot; type: cell-based; settings: FIG. 9C
Description: T-24 Nectin-4 (clone1A9) cells were treated with an anti-nectin-4 ADC (AGS-22C3E) for 48 hours and stained with β-tubulin for microtubules and DAPI, a nuclear DNA stain. FIGS. 9B and 9C depict activation of phospho-INK in response to the treatment with an anti-nectin-4 ADC (AGS-22C3E). In FIG. 9B, western blots show an increase in phospho-JNK over a period of 48 hours upon treatment with an anti-nectin-4 ADC (AGS-22C3E) at 1 ug/mL). In FIG. 9C, Phosphorylation of JNK is observed in treatment with an anti-nectin-4 ADC (AGS-22C3E) and MMAE but absent in untreated or non-binding ADC control.

phospho-JNK [2] = experiment: ER stress, phospho-JNK activation; type: cell-based
T-24-Nectin-4 cells = experiment: ICD cell surface markers (calreticulin, HSP70); type: cell-based, human; settings: anti-nectin-4 ADC 1 ug/mL, MMAE 100 nM, compared with untreated or control hIgG-MMAE (1 mg/mL)
Source text: FIG. 4A is a cartoon representation of the release of ATP and HMGB1 by cells treated with an anti-nectin-4 ADC and the effects of the released ATP and HMGB1 on macrophages. FIG. 4B is a cartoon representation of the release of ATP and HMGB1 by cells treated with an anti-nectin-4 ADC, the activation of the immune cells by the ATP and HMGB1, and the potential immunogenic cell death or immunogenic cell killing by the activated immune cells. FIG. 4C depicts ATP release in control T-24 cells and T-24 cells expressing nectin-4 after various treatments as indicated. FIG. 4D depicts ATP release in control UM-UC-3 cells and UM-UC-3 cells expressing nectin-4 after various treatments as indicated. FIG. 4E depicts HMGB1 release in control T-24 cells and T-24 cells expressing nectin-4 after various treatments as indicated. FIGS. 4F and 4G depict cell surface calreticulin (4F) and HSP70 (4G), respectively, in cells upon various treatments as indicated. Increase in ICD cell surface markers such as calreticulin or HSP70 can be detected on T-24-Nectin-4 cells upon treatment with an anti-nectin-4 ADC (1 ug/mL) or MMAE (100 nM) compared with untreated or treatment with the control hIgG-MMAE (1 mg/mL). In FIGS. 4C to 4G, EV and AGS-22C3E indicate the same anti-nectin-4 ADC.

[3] = system: acute myeloid leukemia (AML) at relapse; settings: administered alone; cited from earlier work
human Nectin-4 = biological target: T1, human Nectin-4 (human, UniProt Q96NY8 32-510); experiment: cell-based or functional assay
T1 sequence: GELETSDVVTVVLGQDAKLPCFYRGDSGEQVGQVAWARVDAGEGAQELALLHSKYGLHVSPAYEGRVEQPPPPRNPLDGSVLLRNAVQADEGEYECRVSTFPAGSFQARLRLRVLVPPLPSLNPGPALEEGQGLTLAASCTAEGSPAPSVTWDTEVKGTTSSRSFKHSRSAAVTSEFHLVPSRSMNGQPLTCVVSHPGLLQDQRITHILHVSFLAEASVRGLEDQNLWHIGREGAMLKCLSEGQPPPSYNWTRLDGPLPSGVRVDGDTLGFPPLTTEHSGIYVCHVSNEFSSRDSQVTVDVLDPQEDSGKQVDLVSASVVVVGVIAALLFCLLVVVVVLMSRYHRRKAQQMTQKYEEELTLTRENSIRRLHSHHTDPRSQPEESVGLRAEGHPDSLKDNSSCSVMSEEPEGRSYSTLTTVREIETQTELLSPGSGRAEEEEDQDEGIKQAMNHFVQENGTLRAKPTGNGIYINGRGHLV

Molecule: CC[C@H](C)[C@@H]([C@@H](CC(=O)N1CCC[C@H]1[C@H](OC)[C@@H](C)C(=O)N[C@H](C)[C@@H](O)c1ccccc1)OC)N(C)C(=O)[C@@H](NC(=O)[C@@H](NC)C(C)C)C(C)C [MMAE, monomethyl auristatin E] (H-[NMeV]V[Dil][Dolaproine]-X1)
- phosphorylation of JNK (phospho-JNK [1]): observed
- phospho-JNK activation (phospho-JNK [2]): activates phospho-JNK
- cell surface calreticulin (ICD marker) (T-24-Nectin-4 cells; FIG. 4F): Increase
- cell surface HSP70 (ICD marker) (T-24-Nectin-4 cells; FIG. 4G): Increase

Molecule: CT-011: anti-PD-1 antibody, a humanized antibody
- response in AML at relapse [3]: failed to show response

B1: enfortumab vedotin (antibody, human IgG1, kappa, V domains shown)
VH: EVQLVESGGGLVQPGGSLRLSCAASGFTFSSYNMNWVRQAPGKGLEWVSYISSSSSTIYYADSVKGRFTISRDNAKNSLSLQMNSLRDEDTAVYYCARAYYYGMDVWGQGTTVTVSS
VL: DIQMTQSPSSVSASVGDRVTITCRASQGISGWLAWYQQKPGKAPKFLIYAASTLQSGVPSRFSGSGSGTDFTLTISSLQPEDFATYYCQQANSFPPTFGGGTKVEIKR
modifications: MMAE conjugated via a protease-cleavable maleimidocaproyl valine-citrulline (vc) linker on cysteine residues that comprise the interchain disulfide bonds; drug-to-antibody ratio approximately 3.8:1
- Enfortumab vedotin Cytotoxicity IC50 (T-24 Nectin-4 Clone 1A9 cells; cell viability by CELL TITER-GLO 120 hours post-treatment) (human Nectin-4): 85 ng/mL
- Enfortumab vedotin Cytotoxicity IC50 (UM-UC-3 Nectin-4 Clone 1D11 cells; cell viability by CELL TITER-GLO 120 hours post-treatment) (human Nectin-4): 6 ng/mL
